Data on five compounds can be found in PMC8698521 (RSC Advances, 2021).

Common to all, as to assay: Glycosidase inhibition, spectrophotometric p-nitrophenyl glycoside assay
The subject of assay [1] is β-Glucosidase from almonds. To be noted: 1 mM inhibitor; 37 °C, 30 min; NI = no inhibition up to 20 mM.
Assay [2] has as its target T1, α-Mannosidase from jack bean (Canavalia ensiformis, UniProt C0HJB3).
T1 sequence (C0HJB3 1-981): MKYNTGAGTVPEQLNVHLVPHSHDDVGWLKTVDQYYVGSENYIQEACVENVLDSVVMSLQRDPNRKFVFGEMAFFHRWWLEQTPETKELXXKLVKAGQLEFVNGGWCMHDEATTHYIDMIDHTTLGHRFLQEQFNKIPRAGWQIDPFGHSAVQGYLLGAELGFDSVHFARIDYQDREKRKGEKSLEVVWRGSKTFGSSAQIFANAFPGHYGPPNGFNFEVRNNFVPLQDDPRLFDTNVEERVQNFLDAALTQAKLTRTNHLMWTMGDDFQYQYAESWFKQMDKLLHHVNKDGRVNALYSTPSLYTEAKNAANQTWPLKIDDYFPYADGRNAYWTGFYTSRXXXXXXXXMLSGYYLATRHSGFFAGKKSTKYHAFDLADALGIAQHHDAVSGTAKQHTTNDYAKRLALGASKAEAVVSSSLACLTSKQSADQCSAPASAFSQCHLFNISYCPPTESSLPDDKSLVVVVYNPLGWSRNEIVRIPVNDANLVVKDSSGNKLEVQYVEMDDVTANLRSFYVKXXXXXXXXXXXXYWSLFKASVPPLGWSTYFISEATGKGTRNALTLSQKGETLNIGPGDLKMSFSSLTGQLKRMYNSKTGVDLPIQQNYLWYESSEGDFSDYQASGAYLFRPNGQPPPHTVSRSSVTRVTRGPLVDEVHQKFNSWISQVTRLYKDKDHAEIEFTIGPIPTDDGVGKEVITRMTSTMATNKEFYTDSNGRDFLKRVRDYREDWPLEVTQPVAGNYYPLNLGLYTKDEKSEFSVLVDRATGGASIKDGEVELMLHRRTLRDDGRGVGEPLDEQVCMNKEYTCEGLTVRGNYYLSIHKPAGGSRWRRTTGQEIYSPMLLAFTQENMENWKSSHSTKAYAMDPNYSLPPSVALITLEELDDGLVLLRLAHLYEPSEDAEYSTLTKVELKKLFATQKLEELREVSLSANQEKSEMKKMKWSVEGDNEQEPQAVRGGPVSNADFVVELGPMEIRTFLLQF
To be noted: for inhibition at 1000 µM: pH 4.5, read-out: Percentage inhibition (%) at 1 mM concentration of the inhibitor.

Assay [3] addresses T2, β-Galactosidase from Aspergillus oryzae (Aspergillus oryzae, UniProt Q2UCU3).
T2 sequence (Q2UCU3 19-1005): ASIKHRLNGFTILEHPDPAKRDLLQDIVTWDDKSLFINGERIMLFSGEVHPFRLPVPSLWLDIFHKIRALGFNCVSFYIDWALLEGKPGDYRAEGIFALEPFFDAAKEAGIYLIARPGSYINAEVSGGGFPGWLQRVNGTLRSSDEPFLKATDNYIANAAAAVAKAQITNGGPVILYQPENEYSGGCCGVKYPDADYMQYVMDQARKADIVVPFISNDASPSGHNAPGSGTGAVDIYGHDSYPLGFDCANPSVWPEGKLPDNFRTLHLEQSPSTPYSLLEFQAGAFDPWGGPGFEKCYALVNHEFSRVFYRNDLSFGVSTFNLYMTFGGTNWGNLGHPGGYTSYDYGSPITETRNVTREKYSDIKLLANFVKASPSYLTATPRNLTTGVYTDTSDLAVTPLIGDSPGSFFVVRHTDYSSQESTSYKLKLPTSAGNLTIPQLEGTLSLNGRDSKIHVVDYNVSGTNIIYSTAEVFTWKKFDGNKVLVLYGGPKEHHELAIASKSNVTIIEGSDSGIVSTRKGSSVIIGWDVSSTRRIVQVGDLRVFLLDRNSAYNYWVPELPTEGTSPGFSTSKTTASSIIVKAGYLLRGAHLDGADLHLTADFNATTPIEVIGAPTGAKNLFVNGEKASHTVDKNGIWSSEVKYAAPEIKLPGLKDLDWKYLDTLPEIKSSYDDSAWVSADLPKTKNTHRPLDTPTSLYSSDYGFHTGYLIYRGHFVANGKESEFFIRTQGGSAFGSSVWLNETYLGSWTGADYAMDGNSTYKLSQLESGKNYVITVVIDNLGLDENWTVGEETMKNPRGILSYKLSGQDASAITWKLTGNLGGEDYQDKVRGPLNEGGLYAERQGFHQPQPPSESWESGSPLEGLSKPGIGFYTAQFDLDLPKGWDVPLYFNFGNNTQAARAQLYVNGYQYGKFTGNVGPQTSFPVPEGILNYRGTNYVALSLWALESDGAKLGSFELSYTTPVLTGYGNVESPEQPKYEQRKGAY

The target in assay [4] is α-Glucosidase from Saccharomyces cerevisiae (Saccharomyces cerevisiae, UniProt P53341). Conditions: pH 7.2, read-out: Percentage inhibition (%) at 1 mM concentration of the inhibitor.
The target of assay [5] is α-Galactosidase from green coffee beans (Coffea arabica, UniProt Q42656).
In assay [6] the test system is β-Mannosidase from Helix pomatia.

α-Glucosidase from Saccharomyces cerevisiae, sequence (P53341 whole entry): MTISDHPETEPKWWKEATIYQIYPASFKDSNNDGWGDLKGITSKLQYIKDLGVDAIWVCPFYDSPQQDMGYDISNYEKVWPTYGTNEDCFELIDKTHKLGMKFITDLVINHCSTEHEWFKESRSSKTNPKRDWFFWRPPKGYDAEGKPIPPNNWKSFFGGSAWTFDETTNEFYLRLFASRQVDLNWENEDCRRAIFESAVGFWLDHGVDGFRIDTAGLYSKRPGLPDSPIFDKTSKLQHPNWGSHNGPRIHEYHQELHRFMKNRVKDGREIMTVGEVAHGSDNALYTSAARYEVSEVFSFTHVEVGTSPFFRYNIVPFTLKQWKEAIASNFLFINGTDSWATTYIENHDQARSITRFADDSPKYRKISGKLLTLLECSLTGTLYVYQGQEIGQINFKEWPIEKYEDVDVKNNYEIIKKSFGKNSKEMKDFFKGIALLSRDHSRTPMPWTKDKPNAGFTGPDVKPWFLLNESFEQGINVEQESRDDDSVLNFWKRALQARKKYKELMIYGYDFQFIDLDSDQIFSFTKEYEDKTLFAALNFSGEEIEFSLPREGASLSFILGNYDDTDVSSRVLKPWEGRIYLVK
α-Galactosidase from green coffee beans, sequence (Q42656 16-378): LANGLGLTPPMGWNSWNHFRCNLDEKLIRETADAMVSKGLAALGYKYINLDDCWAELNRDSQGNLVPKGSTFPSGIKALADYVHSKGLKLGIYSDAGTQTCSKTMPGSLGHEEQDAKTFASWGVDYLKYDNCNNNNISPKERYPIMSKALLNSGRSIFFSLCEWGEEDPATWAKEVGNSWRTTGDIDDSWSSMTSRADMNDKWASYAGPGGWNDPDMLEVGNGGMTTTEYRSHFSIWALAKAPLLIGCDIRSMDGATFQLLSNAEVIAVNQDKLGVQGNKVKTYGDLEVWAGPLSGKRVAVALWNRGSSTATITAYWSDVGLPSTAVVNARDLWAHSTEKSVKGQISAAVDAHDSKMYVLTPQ

`C[C@@H]1CC[C@@H](O)[C@@H](O)[C@@H](O)[C@@H]1O` [Compound 16, (1R,2R,3S,4R,5R)-5-Methylcycloheptane-1,2,3,4-tetraol]: the “Percentage inhibition (%) at 1 mM concentration of the inhibitor” value (“Percentage inhibition (%)” for short) in assay [1] was found to be 29.8%. The entries for the “inhibition as stated in text” value in assay [2] and in assay [3] were “inhibited” and “inhibits”, respectively. For the same compound, the inhibition at 1000 µM in assay [2] was 35.1%; in assay [3] (pH 7.2, read-out: Percentage inhibition (%) at 1 mM concentration of the inhibitor), 12.8%.

Consider `OCC1=CC[C@@H](O)[C@@H](O)[C@@H](O)[C@@H]1O` [Compound 6, (1R,2R,3S,4R)-5-(Hydroxymethyl)cyclohept-5-ene-1,2,3,4-tetraol], for which the inhibition at 1000 µM in assay [4] was found to be 22.1%; in assay [5] (pH 6.8, read-out: Percentage inhibition (%) at 1 mM concentration of the inhibitor), 41.7%. In addition, in assay [1], the “Percentage inhibition (%)” value worked out at 3.2%. Further, the “inhibition as stated in text” value in assay [5] was “inhibited”.

Take `OCC1=CC[C@H](O)[C@@H](O)[C@@H](O)[C@@H]1O` [Compound 5, (1S,2R,3S,4R)-5-(Hydroxymethyl)cyclohept-5-ene-1,2,3,4-tetraol]: the inhibition at 1000 µM stood at 3.3% in assay [4] and 12.5% in assay [2]. Also, the “inhibition as stated in text” value in assay [2] was “inhibited”.

As for `O=C1CC=C(CO)[C@@H](O)[C@H](O)[C@@H]1O` [Compound 4, (5R,6S,7S)-5,6,7-Trihydroxy-4-(hydroxymethyl)cyclohept-3-enone], the inhibition at 1000 µM in assay [4] was 41.1%. Besides, the “Percentage inhibition (%)” value in assay [1] was 12.3%. In addition, the “inhibition as stated in text” value in assay [6] is “could inhibit”.

Consider `C[C@H]1CC[C@@H](O)[C@@H](O)[C@@H](O)[C@@H]1O` [Compound 15, (1R,2R,3S,4R,5S)-5-Methylcycloheptane-1,2,3,4-tetraol], for which the inhibition at 1000 µM in assay [4] was 19.5%. Also, the “Percentage inhibition (%)” value in assay [1] turned out to be 14.1%. In addition, in assay [2], the “inhibition as stated in text” value is “inhibited” and the inhibition at 1000 µM came out at 10.6%.
